Laboratory results: patent US20240002846A1, “COMPOSITIONS AND METHODS FOR THE DIAGNOSIS AND TREATMENT OF ITCH” (Duke University, priority 2020, published 2024)

Tests used:
rTRPV4 = rTRPV4 (Rattus norvegicus, UniProt Q9ERZ8); experiment: In vitro interaction (overlay) assay LPC-TRPV4; format: binding; set-up: made in house; host or cells: HEK293 cells, surface proteins isolated with Pierce Cell Surface Isolation kit; conditions: 200 pmol per spot
Procedure: In vitro interaction assays of LPC-TRPV4. Surface proteins were obtained from HEK293 cells transiently expressing rTRPV4-EGFP channels using the Pierce Cell Surface Isolation kit (Pierce Biotechnology, Rockford, IL) following the manufacturer's instructions. Overlay assays were performed as previously described (Morales-Lazaro et al. Nat. Commun. 2016, 7, 13092). In brief, LPC 18:1 was spotted (200 pmol per spot) onto a nitrocellulose membrane (GE Healthcare, Pittsburgh, PA) and then blocked with 1% fatty acid-free BSA (Calbiochem) and 6% fat-free dried milk in PBS. Membranes were then incubated with the surface protein solutions and exposed to anti-GFP antibody (Sigma, St. Louis, MO) diluted 1:1000 in 3% fat-free dried milk in PBST (with 0.1% of Tween). Membranes were incubated with horseradish peroxidase-conjugated secondary anti-rabbit antibody (Cell Signaling Technology) diluted 1:7500 in 6% fat-free dried milk in PBST. The binding of rTRPV4-EGFP and TRPV4-R746D-EGFP to the lipid-containing spots was visualized by chemiluminescence by exposing the blot for 15 min (Amersham Bioscience, Piscataway, NJ). Semi-quantitative densitometric analysis was done using ImageJ (NIH) and expressed as relative protein levels of TRPV4 bound to each spot.

[1] = tested on: human TRPV4 mutations (R746C, R746G, R746D, K754G, R757G, R774G, and W776G); experiment: Ca2+ imaging in HEK cells transfected with human TRPV4 mutations; format: cell-based
Procedure: Cell culture and transfection. HEK293 cells (ATCC® CRL-1573) were cultured on poly-D-lysine coated coverslips in 24-well plate containing DMEM media with high-Glucose (Gibco, Gaithersburg, MD) supplemented with 10% fetal bovine serum (FBS, HyClone Laboratories, Logan, UT) and 100 U/mL of penicillin/streptomycin (Gibco, Gaithersburg, MD). Cell cultures were maintained with 5% of CO2 in a humidified incubator at 37° C. HEK cells were transfected with rat or human wild type or mutant TRPV4 channels with EGFP or YFP coupled to their C-termini (1.5 μg of plasmid for excised patch clamp and Ca^2+ imaging and 200 ng for single-channel experiments). The jetPEI™ Polyplus transfection reagent (Polyplus Transfection, New York, NY) for electrophysiology or Lipofectamine™ 2000 Reagent (Invitrogen, Waltham, MA) for Ca^2+ imaging were used for transfections per manufacturer's instructions as previously described (Chen et al. Pain 2014, 155, 2662-2672; Morales-Lazaro et al. Nat. Commun. 2016, 7, 13092). […]
In vitro and ex vivo Ca^2+ imaging. […] Ratios of emissions were acquired at 0.5 Hz. ΔR/R0 was determined as the fraction of the increase of a given ratio over baseline ratio divided by baseline ratio. […]

mouse keratinocytes = experiment: Ca2+ imaging in cultured mouse keratinocytes; format: cell-based; conditions: inhibitor 10 μM
Procedure: Basal keratinocytes were separated from the cornified sheets by filtration through a […] cell strainer. Keratinocytes were plated on collagen I-coated dishes or glass coverslips and grown in EME media (Gibco, Gaithersburg, MD) containing 8% chelex (Bio-rad, Hercules, CA)-treated FBS with the final Ca^2+ adjusted to 0.05 mM, bovine pituitary extract (50 μg/mL), epidermal growth factor (5 ng/mL), and lx antibiotics/antimycotics (Gibco, Gaithersburg, MD) in a humidified incubator with 5% CO2 at 37° C. for 5-7 days until use. To knockdown Trpv4 in isolated keratinocytes from newborn keratinocyte-Trpv4 cKO mice, cells were treated with 4-OH tamoxifen at 500 nM for 72 h.
(§1) In vitro and ex vivo Ca^2+ imaging. […] Ca^2+ imaging of cultured cells in response to chemicals was conducted after loading with 5 μM Fura2-AM (Invitrogen, Waltham, MA) for 45 min after a ratiometric Ca^2+-imaging protocol with 340/380-nm blue light for dual excitation. Ratios of emissions were acquired at 0.5 Hz. ΔR/R0 was determined as the fraction of the increase of a given ratio over baseline ratio divided by baseline ratio. […] Control cells received vehicles.

human keratinocytes = experiment: Ca2+ imaging in cultured human keratinocytes; format: cell-based; conditions: inhibitor 10 μM
Procedure: In brief, surgically discarded foreskin samples, obtained from Duke Children's Hospital in accordance to institutionally approved IRB protocol, were incubated with Dispase (Gibco, Gaithersburg, MD, 4 U/mL) for 12-16 h at 4° C. followed by 0.05% trypsin (Gibco, Gaithersburg, MD) for 10-20 min at 37° C. Cells were maintained in keratinocyte serum-free media (Invitrogen, Waltham, MA) with 5% CO2 at 37° C. and used at passage 2-3.
as §1

Sequence of rTRPV4 (Q9ERZ8 whole entry): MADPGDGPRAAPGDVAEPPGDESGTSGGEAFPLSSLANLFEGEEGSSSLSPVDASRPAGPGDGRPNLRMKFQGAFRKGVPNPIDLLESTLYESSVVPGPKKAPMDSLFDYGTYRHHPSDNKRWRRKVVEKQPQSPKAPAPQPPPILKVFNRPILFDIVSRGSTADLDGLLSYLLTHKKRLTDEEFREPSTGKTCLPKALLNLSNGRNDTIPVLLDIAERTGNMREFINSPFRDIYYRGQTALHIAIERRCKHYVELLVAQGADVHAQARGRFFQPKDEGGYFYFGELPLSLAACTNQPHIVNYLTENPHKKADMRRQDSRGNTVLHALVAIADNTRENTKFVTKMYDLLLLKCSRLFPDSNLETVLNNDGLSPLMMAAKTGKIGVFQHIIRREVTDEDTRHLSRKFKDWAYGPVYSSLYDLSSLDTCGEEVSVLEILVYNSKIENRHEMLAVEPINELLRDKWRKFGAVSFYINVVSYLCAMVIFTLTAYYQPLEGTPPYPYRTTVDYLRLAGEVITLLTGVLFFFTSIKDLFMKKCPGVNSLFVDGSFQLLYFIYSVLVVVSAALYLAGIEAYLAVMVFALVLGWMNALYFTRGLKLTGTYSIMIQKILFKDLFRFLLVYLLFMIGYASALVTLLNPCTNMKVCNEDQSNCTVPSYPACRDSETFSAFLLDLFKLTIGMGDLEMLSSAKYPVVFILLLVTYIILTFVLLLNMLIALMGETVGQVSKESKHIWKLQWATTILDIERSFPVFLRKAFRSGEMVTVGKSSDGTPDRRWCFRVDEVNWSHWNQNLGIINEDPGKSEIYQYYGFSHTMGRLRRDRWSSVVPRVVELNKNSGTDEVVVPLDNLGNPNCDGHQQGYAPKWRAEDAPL

## LPC 18:1
rTRPV4
  binding of LPC 18:1 to rTRPV4: demonstrated binding
[1]
  Ca2+ signal induced by 10 μM LPC 18:1 in TRPV4 mutants vs hTRPV4: drastically reduced

## Cc1c(C(=O)Nc2cccc(C(F)(F)F)c2)cc(-c2ccccc2)n1CCCN1CCOCC1 [HC067047]
Mouse keratinocytes
  effect on LPA 18:1 (10 μM) induced Ca2+ signal: remained unchanged
  effect on LPC (10 μM) induced Ca2+ signal: significantly reduced
Human keratinocytes
  effect on LPA 18:1 (10 μM) induced Ca2+ signal: remained unchanged
  effect on LPC (10 μM) induced Ca2+ signal: significantly reduced
